Measured values from US20220340597A1, “HEXAHYDRO-1H-PYRAZINO[1,2-A]PYRAZINE COMPOUNDS FOR THE TREATMENT OF AUTOIMMUNE DISEASE” (Hoffmann-La Roche Inc., priority 2019, published 2022).

Assays:
human TLR8 = target: T1, human TLR8 (Homo sapiens, UniProt Q9NR97); experiment: HEK293-Blue-hTLR-8 cells assay
T1 sequence (Q9NR97 27-1041): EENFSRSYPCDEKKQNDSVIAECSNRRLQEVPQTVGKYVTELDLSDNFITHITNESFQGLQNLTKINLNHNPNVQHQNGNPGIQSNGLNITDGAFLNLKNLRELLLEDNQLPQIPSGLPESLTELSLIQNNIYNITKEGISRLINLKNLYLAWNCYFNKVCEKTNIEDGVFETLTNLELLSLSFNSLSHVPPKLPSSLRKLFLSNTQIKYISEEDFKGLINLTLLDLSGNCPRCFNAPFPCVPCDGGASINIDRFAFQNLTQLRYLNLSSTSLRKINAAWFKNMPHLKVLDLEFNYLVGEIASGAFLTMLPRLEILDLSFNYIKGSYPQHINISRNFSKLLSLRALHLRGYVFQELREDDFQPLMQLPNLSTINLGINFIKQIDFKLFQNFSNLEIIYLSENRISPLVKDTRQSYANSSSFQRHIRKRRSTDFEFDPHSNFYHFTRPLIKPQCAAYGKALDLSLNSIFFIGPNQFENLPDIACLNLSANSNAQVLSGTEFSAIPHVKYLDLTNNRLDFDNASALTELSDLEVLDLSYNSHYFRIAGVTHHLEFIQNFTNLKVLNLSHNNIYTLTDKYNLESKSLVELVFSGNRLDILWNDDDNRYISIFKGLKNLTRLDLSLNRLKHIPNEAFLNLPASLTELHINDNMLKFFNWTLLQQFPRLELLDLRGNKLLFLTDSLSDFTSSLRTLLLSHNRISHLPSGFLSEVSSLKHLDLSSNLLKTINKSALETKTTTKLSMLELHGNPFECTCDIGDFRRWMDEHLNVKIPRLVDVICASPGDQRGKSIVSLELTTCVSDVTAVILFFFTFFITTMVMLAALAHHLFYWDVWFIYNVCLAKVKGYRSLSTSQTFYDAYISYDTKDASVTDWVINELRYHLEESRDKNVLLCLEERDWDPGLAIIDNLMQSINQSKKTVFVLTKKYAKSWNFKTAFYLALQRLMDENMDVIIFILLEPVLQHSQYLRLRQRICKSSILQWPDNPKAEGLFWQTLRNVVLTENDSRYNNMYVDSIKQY

human TLR7 = target: T2, human TLR7 (Homo sapiens, UniProt Q9NYK1); experiment: HEK293-Blue-hTLR-7 cells assay; type: cell-based; settings: HEK293-Blue-hTLR7 cells, R848 stimulation, 20 hrs, SEAP reporter; read-out: HEK/hTLR7 IC50
T2 construct: host or cells: HEK293 (HEK-Blue hTLR7)
T2 sequence (Q9NYK1 27-1049): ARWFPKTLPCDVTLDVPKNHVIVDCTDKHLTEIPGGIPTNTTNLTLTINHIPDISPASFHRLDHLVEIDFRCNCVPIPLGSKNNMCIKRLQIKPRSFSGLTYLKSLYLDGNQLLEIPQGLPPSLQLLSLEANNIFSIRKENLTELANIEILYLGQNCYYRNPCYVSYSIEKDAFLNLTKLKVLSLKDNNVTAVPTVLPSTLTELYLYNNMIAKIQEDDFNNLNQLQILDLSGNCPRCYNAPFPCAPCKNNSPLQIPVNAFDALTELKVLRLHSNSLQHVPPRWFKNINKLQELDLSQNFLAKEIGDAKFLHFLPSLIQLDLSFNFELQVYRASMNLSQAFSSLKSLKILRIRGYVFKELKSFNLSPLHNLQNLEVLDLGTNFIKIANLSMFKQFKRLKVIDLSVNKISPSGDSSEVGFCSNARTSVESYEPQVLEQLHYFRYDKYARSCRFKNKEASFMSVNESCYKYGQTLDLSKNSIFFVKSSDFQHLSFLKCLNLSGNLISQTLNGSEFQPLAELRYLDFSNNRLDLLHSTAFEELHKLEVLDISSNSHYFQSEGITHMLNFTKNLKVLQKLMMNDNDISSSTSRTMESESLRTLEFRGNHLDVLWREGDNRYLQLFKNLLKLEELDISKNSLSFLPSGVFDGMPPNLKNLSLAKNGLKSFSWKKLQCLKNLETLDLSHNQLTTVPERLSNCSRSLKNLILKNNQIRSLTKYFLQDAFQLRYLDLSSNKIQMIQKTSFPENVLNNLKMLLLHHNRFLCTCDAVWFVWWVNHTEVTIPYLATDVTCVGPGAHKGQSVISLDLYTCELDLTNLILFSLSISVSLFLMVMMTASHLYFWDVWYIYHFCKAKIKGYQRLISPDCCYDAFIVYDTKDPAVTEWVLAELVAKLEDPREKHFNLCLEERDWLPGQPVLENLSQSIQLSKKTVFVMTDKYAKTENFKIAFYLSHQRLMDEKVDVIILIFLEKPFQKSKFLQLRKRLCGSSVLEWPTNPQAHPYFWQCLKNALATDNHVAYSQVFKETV

Row | SMILES | IC50 (human TLR8) [nM] | IC50 (human TLR7) [nM]
1 | [2H]c1ccc2c(N3C[C@@H]4CN(Cc5cnc(N6C[C@@H]7C[C@H]6CN7)cc5C)CCN4[C@H](C)C3)ccc(C#N)c2n1 [Example 94, 5-[(4R,9aS)-8-[[6-[(1S,4S)-2,5-diazabicyclo[2.2.1]heptan-2-yl]-4-methyl-3-pyridyl]methyl]-4-methyl-3,4,6,7,9,9a-hexahydro-1H-pyrazino[1,2-a]pyrazin-2-yl]-2-deuterio-quinoline-8-carbonitrile] | 8 | 25
2 | [2H]c1ccc2c(N3C[C@@H]4CN(c5ncc(N6C[C@@H]7C[C@H]6CN7)cc5C)CCN4[C@H](C)C3)ccc(C#N)c2n1 [Example 95, 5-[(4R,9aR)-8-[5-[(1S,4S)-2,5-diazabicyclo[2.2.1]heptan-2-yl]-3-methyl-2-pyridyl]-4-methyl-3,4,6,7,9,9a-hexahydro-1H-pyrazino[1,2-a]pyrazin-2-yl]-2-deuterio-quinoline-8-carbonitrile] | 6 | 2
3 | [2H]c1ccc2c(N3C[C@@H]4CN(c5ncc(N6C[C@@H](N)[C@@H](OC)C6)cc5C)CCN4[C@H](C)C3)ccc(C#N)c2n1 [Example 96, 5-[(4R,9aR)-8-[5-[(3R,4S)-3-amino-4-methoxy-pyrrolidin-1-yl]-3-methyl-2-pyridyl]-4-methyl-3,4,6,7,9,9a-hexahydro-1H-pyrazino[1,2-a]pyrazin-2-yl]-2-deuterio-quinoline-8-carbonitrile] | 5 | 2
4 | [2H]c1ccc2c(N3C[C@@H]4CN(c5ncc(N6CC[C@@](C)(N)C6)cc5C)CCN4[C@H](C)C3)ccc(C#N)c2n1 [Example 97, 5-[(4R,9aR)-8-[5-[(3R)-3-amino-3-methyl-pyrrolidin-1-yl]-3-methyl-2-pyridyl]-4-methyl-3,4,6,7,9,9a-hexahydro-1H-pyrazino[1,2-a]pyrazin-2-yl]-2-deuterio-quinoline-8-carbonitrile] | 4 | 2

The next lines start with the values.

Row | IC50 (human TLR8) [nM] | IC50 (human TLR7) [nM] | SMILES
5 | 10 | 24 | [2H]c1ccc2c(N3C[C@@H]4CN(Cc5ccc(N6C[C@H]7NCCO[C@@H]7C6)nc5C)CCN4[C@H](C)C3)ccc(C#N)c2n1 [Example 98, 5-[(4R,9aS)-8-[[6-[(4aR,7aR)-3,4,4a,5,7,7a-hexahydro-2H-pyrrolo[3,4-b][1,4]oxazin-6-yl]-2-methyl-3-pyridyl]methyl]-4-methyl-3,4,6,7,9,9a-hexahydro-1H-pyrazino[1,2-a]pyrazin-2-yl]-2-deuterio-quinoline-8-carbonitrile]
6 | 2 | 1 | [2H]c1ccc2c(N3C[C@@H]4CN(c5ncc(N6C[C@@H](N)[C@H](OC)C6)cc5C)CCN4[C@H](C)C3)ccc(C#N)c2n1 [Example 99, 5-[(4R,9aR)-8-[5-[(3R,4R)-3-amino-4-methoxy-pyrrolidin-1-yl]-3-methyl-2-pyridyl]-4-methyl-3,4,6,7,9,9a-hexahydro-1H-pyrazino[1,2-a]pyrazin-2-yl]-2-deuterio-quinoline-8-carbonitrile]
7 | 3 | 1 | [2H]c1ccc2c(N3C[C@@H]4CN(c5ncc(N6C[C@H]7NCCO[C@@H]7C6)cc5C)CCN4[C@H](C)C3)ccc(C#N)c2n1 [Example 100, 5-[(4R,9aR)-8-[5-[(4aR,7aR)-3,4,4a,5,7,7a-hexahydro-2H-pyrrolo[3,4-b][1,4]oxazin-6-yl]-3-methyl-2-pyridyl]-4-methyl-3,4,6,7,9,9a-hexahydro-1H-pyrazino[1,2-a]pyrazin-2-yl]-2-deuterio-quinoline-8-carbonitrile]
